In patent publication EP4458977A1, “SELF-ASSEMBLING PEPTIDE AMPHIPHILES AS RETROVIRAL TRANSDUCTION ENHANCERS” (Max-Planck-Gesellschaft zur Förderung der Wissenschaften …, priority 2023, dated 2024):
“And” between values parts separate entries of the source, which are not always exact repeats. Equal entries are not always repeated. “Also recorded” adds a separate entry of the source. Where two headings read alike, the source gives them in different places. Where a SMILES comes first, the peptide text is derived from it. Where no end group is shown, it is not given here. The star is where a group is joined. 2‑naphthylmethyl = c1ccc2cc(C*)ccc2c1; Palmitoyl = CCCCCCCCCCCCCCCC(=O)*

Legend:
HeLa cells = test: Confocal laser scanning microscopy and degradation study with PA library and HeLa cells; format: cell-based; details: for association with cellular membranes: 2 µg added to 20.000 HeLa cells, 30 min; for degradability (in words) / Degradability / % (rel. to initial particles > 10 µm^2): HeLa cells; for degradability (in words): 3 days; for Degradability / % (rel. to initial particles > 10 µm^2): 3 d relative to 30 min; for aggregate number decreases / degraded in presence of HeLa cells within 3 days: d3 relative to d0
Outline: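 HeLa cells (20,000/well) got Proteostat-stained PAs (2 µg peptide per 20.000 cells) with Hoechst nuclear stain, 30 min at 37°C, PBS-washed, then held 3 d at 37°C unwashed. Confocal imaging at d0 and d3 counted aggregates >10 µm^2 in 1008 × 1008 µm, three technical replicates. Degradation taken as d3/d0 aggregate number.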

[1] = Zeta-potential measurement (dynamic light scattering); format: physicochemical
[2] = Fluorescence microscopy of ThT-stained fibrils (µm-sized aggregates); format: physicochemical; details: for fluorescent, µm-sized aggregates (ThT staining): 1 mg/mL stained with 50 µM ThT
Outline: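 Fibrils (1 mg mL^-1) mixed 1:9 with 50 µM ThT, giving 0.1 mg mL^-1 stained fibrils on glass. Imaged under 10x air objective with excitation 480/40 nm and emission 527/30 nm. Fibrils called distinct when no visible structures appeared in fluorescence or brightfield.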

HIV-1 = details: for Infectivity enhancing N fold at 1.3 µM: relative to virus only; for enhancement of HIV-1 infection / transduction (in words): 6.5 µM, 1.3 µM, 0.26 µM;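 as to all read-outs here: TZM-bl reporter cells exposed to HIV-1 with peptide fibrils, infection read out as β-galactosidase luminescence, compared with virus alone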
Method: HIV-1 Infection Assay with TZM-bl cells: The effect of peptide fibrils on HIV-1 infection was studied via a luminescence assay for β-galactosidase, which was reported by TZM-bl cells upon infection. The HIV-1 infection assay was conducted in three technical replicates and repeated in three independent experiments unless stated otherwise.

[3] = ATR-FT-IR determination of β-sheet content; format: physicochemical; details: for β-sheet amount: 1 mg/mL in PBS lyophilized, integral at 1630 cm^-1 relative to 1650-1700 cm^-1; for β-sheet content / %: peak integration of parallel β-sheet at 1630 cm-1, 2nd derivative of ATR-IR spectra
Outline: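 From second-derivative spectra, β-sheet amount is the 1630 cm-1 integral over the 1650-1700 cm-1 (native) region. Spectra were taken on solid, lyophilized fibrils via diamond-crystal ATR, averaging 64 scans at 2 cm^-1 resolution.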

[4] = TEM of peptide assemblies (fibril formation / assembly); format: physicochemical; design: key to Fibril Formation: "1" means fibril formation observed; "0" means no fibrils observed; details: for TEM morphology (in words): 1 mg/mL in PBS; for Assembly without hydrophob residue: corresponding peptide without hydrophobic moiety; for Assembly: peptide amphiphile
Outline: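 Peptides predissolved in DMSO at 10 mg/mL (stock), diluted in PBS to 650 µM or 1 mg/mL final and incubated 1 d at rt (20–25 °C) to form fibrils. Other concentrations obtained by diluting preformed fibrils; assemblies imaged by TEM.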

[5] = Thioflavin T (ThT) fluorescence assay; format: physicochemical; design: key to ThT: + = ThT active; - = no ThT fluorescence observed; details: for ThT: ThT fluorescence, 1 mg/mL, PBS
Method: Transmission electron microscopy (TEM) measurements, Thioflavin (ThT), zeta-potential measurements for fibril characterization were prepared and conducted according to prior art procedures. […] Fibrils were defined as distinct, if no visible structures could be identified in fluorescence and brightfield microscopy. A peptide fibril was considered as ThT-active if the fluorescence intensity was at least twice as strong compared to the control (PBS containing 10% DMSO).

[6] = Zeta-potential measurement (dynamic light scattering); format: physicochemical; details: for Zeta Potential / mV: 1 mg/mL, PBS
Method: Zeta-potential: 60 µL of the peptides (1 mg mL-1) were diluted in 600 µL, 1 mM KCI solution and placed in a disposable folded capillary cuvette. All zeta-potential measurements were conducted by dynamic light scattering technology (Zetasizer, Malvern Instruments) and in triplicates for each sample. The derived count rate of the zeta potential measurement was used as information on the light scattering intensity and turbidity of the sample as a further indicator for microscopic aggregation.

Compound | association with cellular membranes (HeLa cells) | degradability (in words) (HeLa cells) | Degradability / % (rel. to initial particles > 10 µm^2) (HeLa cells) [%] | aggregate number decreases / degraded in presence of HeLa cells within 3 days (HeLa cells) [%] | Zeta-Potential / mV [1] [mV] | fluorescent, µm-sized aggregates (ThT staining) [2] | enhances infectivity at 1.3 µM concentration, times more efficient compared to virus only infection (HIV-1) [times] | Infectivity enhancing N fold at 1.3 µM (HIV-1) | β-sheet amount [3] [%] | TEM morphology (in words) [4] | Assembly without hydrophob residue [4] | Assembly [4] | ThT [5] | formation of µm-sized aggregates in aqueous medium / PBS (in words) [2] | Zeta Potential / mV [6] | β-sheet content / % [3] [%] | also measured
CCCCCCCCCCCCCCCC(=O)N[C@H](C(=O)N[C@H](C(=O)N[C@@H](CCC(N)=O)C(=O)N[C@@H](CCCCN)C(=O)N[C@H](C(=O)N[C@@H](CCCCN)C(N)=O)[C@@H](C)CC)[C@@H](C)CC)[C@@H](C)CC [Pat15, C16-IIQKIK-NH2] (Palmitoyl-IIQKIK-NH2) | association with cellular membranes | degradable PA | -28 | 28 | 12.6 | fluorescent, µm-sized aggregates | 4 | 4±1 N fold | 45 | fibrillar morphologies | No | Yes |  |  |  |  | Degradability / % (rel. to initial particles > 10 µm^2) (HeLa cells; listed as Pat 15): 28%; Infectivity enhancing N fold at 1.3 µM (HIV-1; listed as Pat 15): 4 N fold
CCCCCCCCCCCCCCCC(=O)N[C@@H](C)C(=O)NCC(=O)NCC(=O)N[C@@H](CCCNC(=N)N)C(=O)N[C@H](C(=O)N[C@@H](CCCCN)C(N)=O)C(C)C [Pat18, C16-AGGRVK-NH2] (Palmitoyl-AGGRVK-NH2) |  |  |  |  | 15.9 | no fluorescent, µm-sized aggregates | 3 | 3±1 N fold | 56 | fibrillar morphologies | No | Yes |  |  |  |  | 
CCCCCCCCCCCCCCCC(=O)N[C@@H](CC(C)C)C(=O)N[C@@H](CC(N)=O)C(=O)NCC(=O)NCC(=O)N[C@H](C(=O)N[C@@H](CCCCN)C(=O)N[C@@H](CCCCN)C(N)=O)C(C)C [Pat19, C16-LNGGVKK-NH2] (Palmitoyl-LNGGVKK-NH2) | association with cellular membranes | degradable PA | 48 | 48 | 19.4 | fluorescent, µm-sized aggregates | 6 | 6 N fold and 6±1 N fold | 34 | fibrillar morphologies | No | Yes |  |  |  |  | 
CCCCCCCCCCCCCCCC(=O)N[C@@H](C)C(=O)N[C@@H](CC(C)C)C(=O)N[C@@H](C)C(=O)N[C@@H](C)C(=O)NCC(=O)N[C@@H](CCCCN)C(=O)N[C@@H](CCCCN)C(N)=O [Pat20, C16-ALAAGKK-NH2] (Palmitoyl-ALAAGKK-NH2) | association with cellular membranes | degradable PA | 87 | 87 | 20.2 | fluorescent, µm-sized aggregates | 5 | 5±1 N fold | 48 | fibrillar morphologies | No | Yes |  |  |  |  | 
CCCCCCCCCCCCCCCC(=O)N[C@@H](CC(C)C)C(=O)N[C@@H](CC(C)C)C(=O)N[C@@H](CC(C)C)C(=O)N[C@@H](CCCCN)C(=O)N[C@@H](CCCCN)C(N)=O [Pat23, C16-LLLKK-NH2] (Palmitoyl-LLLKK-NH2) | association with cellular membranes | moderately degradable PA | 27 | 27 | 20.9 | fluorescent, µm-sized aggregates | 3 | 3±0 N fold | 46 | fibrillar morphologies | No | Yes |  |  |  |  | 
CCCCCCCCCCCCCCCC(=O)N[C@@H](C)C(=O)N[C@@H](CCCCN)C(=O)N[C@@H](C)C(=O)N[C@H](C(=O)NCC(=O)N[C@@H](CCCCN)C(N)=O)C(C)C [Pat31, C16-AKAVGK-NH2] (Palmitoyl-AKAVGK-NH2) | association with cellular membranes | degradable PA | 89 | 89 | 19.7 | fluorescent, µm-sized aggregates | 6 | 6 N fold and 6±3 N fold | 43 | fibrillar morphologies | No | Yes |  |  |  |  | 
FQFKFKC-NH2 [P2, FQFKFKC-NH2] |  |  |  |  |  |  |  |  |  | Formation of fibrils; also recorded: twisted fibrils |  |  | - | does not form µm-sized aggregates in PBS | +10.1 ± 3.0 mV | 46 | enhancement of HIV-1 infection / transduction (in words) (HIV-1): inactive
Nap-VVVAAAKKK-NH2 ({2‑naphthylmethyl}-VVVAAAKKK-NH2; SMILES CC(C)[C@H](NCc1ccc2ccccc2c1)C(=O)N[C@H](C(=O)N[C@H](C(=O)N[C@@H](C)C(=O)N[C@@H](C)C(=O)N[C@@H](C)C(=O)N[C@@H](CCCCN)C(=O)N[C@@H](CCCCN)C(=O)N[C@@H](CCCCN)C(N)=O)C(C)C)C(C)C) [Pat13] |  |  |  |  | 1.2 |  |  | 1±1 N fold | 46 | formed fibrils in aqueous medium | No | Yes |  | failed to form µm-sized aggregates in aqueous medium |  |  | N-fold ThT-fluorescence ([5]; relative to PBS control): 1.3; zeta-potential (in words) [6]: almost neutral zeta-potential; Count Rate / kcps ([6]; derived count rate of scattered light during zeta-potential measurements): 9.3 kcps; infectivity enhancement at 1.3 µM concentration compared to virus only infection (in words) (HIV-1): does not enhance infectivity; Fibril Formation ([4]; via TEM, hydrophobic moiety exchange): 1
VVVAAAEEE-NH2 [P3] |  |  |  |  |  |  |  |  |  | amorphous aggregates; also recorded: non-fibrillar amorphous aggregates |  |  | - | does not form µm-sized aggregates in PBS | -21.2 ± 1.5 mV | 46 | 
VVVAAAKKK-NH2 [P1] |  |  |  |  |  |  |  |  |  | amorphous aggregates; also recorded: non-fibrillar amorphous aggregates |  |  | - | does not form µm-sized aggregates in PBS | -2.3 ± 0.4 mV | 48 | enhancement of HIV-1 infection / transduction (in words) (HIV-1): inactive
